Tested on: athletes
Test: comparative study of amino acids mixture, creatine and placebo in athletes: bench press, squat, braked bicycle ergometer
Assay type: in vivo, humans
Excerpt: The effects on energy balance of the an amino acids mixture according to the invention as above indicated were the subject of a comparative study with creatine, on a weight ratio (w/w), or with no treatment, on a large group of volunteers submitted to a rigid protocol of alimentation and training. […] In some athletes, also heart frequency rate and VO2 max were registered while performing a treadmill test, before arid at the end of this study.

[1] = after one month of treatment and training, mixture 24 g/d, creatine 25 g/d

SMILES: CN(CC(=O)O)C(=N)N [creatine]
- performances over basal and no treatment group (after one month): significant improvements of performances
- Bench press [1]: 177 ± 34 kg
- Squat Room. [1]: 148.5 ± 31.2 kg
- Watt/Kg max (maximal power productive performance on a braked bicycle ergometer) [1]: 9.8 ± 0.6 watt/kg max
